Test results reported in US7629317B2, “Control of growth and repair of gastro-intestinal tissues by gastrokines and inhibitors” (The University of Chicago, priority 2001, dated 2009).
Entries after “also recorded” stand apart in the source; their conditions may differ.

Tests used:
[1] = tested on: Aspergillus niger; assay: Growth of other bacteria and fungi; format: cell-based
[2] = tested on: MDCK cells; assay: Transepithelial electrical resistance (TER) of MDCK cell monolayers; format: cell-based
Method: Monolayer cultures of MDCK cells were grown on permeable polycarbonate filters (0.4-μm pore size) (Transell) in DMEM containing FBS (2%) without (control) or with peptide 77-97 (8 μg/ml) for 8 days. TER was measured 24 hr after the cells were plated, and at specified times thereafter using an epithelial volt-ohm meter (EVOM, Millipore). Following each measurement, medium containing FBS without or with peptide was changed (0, 48, and 144 hr), and additional peptide 77-97 (8 μg/ml) was added at 30 and 72 hr. At 72 hr, TER in cultures that received peptide 77-97 was twice as high as in control cultures. Values are means for 3 cultures; variance is <10% of the mean. TER was measured from 3 different areas on the filter.
Panel A: When a stable TER was reached (330 Ω·cm^2) in MDCK cell monolayers the medium was changed to DMEM containing FBS (0.2%), and either peptide 77-97 (8 μg/ml) or EGF (50 ng/ml). After 18 hr, peptide 77-97 or EGF were added to the specified wells. One hour later monochloramine (0.1 mM), like the other agents, was added to the apical and basal compartments of the Transwell. […] Panels B, C: Caco2/bbe (C2) subclone monolayers were grown on collagen-coated polycarbonate filters until a stable TER was reached (225 Ω·cm^2). Spent medium was replaced with fresh medium containing FBS (0.1%) alone or with peptide 77-97 (8 μg/ml). After 18 hr, monochloramine (0.3 mM, B) or indomethacin (0.1 mM, C) was added to both compartments of the Transwell. At time 0, cultures received either vehicle (control), vehicle plus oxidant or indomethacin, or peptide 77-97 and oxidant or indomethacin. TER of injured cultures treated with vehicle decreased by ˜35% at 90 min, whereas peptide-treated cultures declined ˜10%.

[3] = tested on: Klebsiella pneumoniae; assay: Growth of other bacteria and fungi; format: cell-based
[4] = tested on: IEC-6 cells; assay: [3H]thymidine incorporation into DNA in IEC-6 cells; format: cell-based, rat
Source text: Growth stimulation by peptide 77-97 was additive with that of EGF. […] HAE cells were used to test whether AMP-18 can exert an effect on epithelial cells that exist in the local environment of its synthesis. These cells, provided by Dr. Duane Smoot, Howard University College of Medicine, are not completely immortalized and therefore have limited passage number. Growth stimulation of HAE cells by peptide 77-97 was apparently additive with that of EGF (FIG. 16, left panel). Not only does the AMP peptide stimulate growth but it also acted as a motogen, resulting in more rapid migration (restitution) of cells into scrape wounds made in confluent cultures. […] Near-maximal growth stimulation was detected at an AMP peptide concentration of 0.5 μg/ml (0.23 μM) (FIG. 15, center panel), a much lower value than the concentration needed for trefoil peptides (1 μg/μl) (˜150 μM) or the α-defensin, cryptdin 3 ([…]) (˜140 μM) to exert their effects in culture. […]
Non-transformed monkey kidney epithelial cell line BSC-1 and other epithelial cell lines were used to assess effects on growth. […] AMP-18 preparations were added to the culture medium and 4 days later the cell monolayer was rinsed, detached with trypsin, and the cells were counted using a hemocytometer. […]

[5] = tested on: hsp25, hsp72; assay: Expression of heat shock proteins by IEC-18 cells after thermal injury (immunoblot); format: cell-based, rat; conditions: 42° C. 23 min, peptide 8 μg/ml; 12 and 24 hr; listed as AMP peptide
Method: FIG. 42. Effect of AMP peptide on expression of heat shock proteins by intestinal epithelial cells after thermal injury. IEC-18 cell monolayers were subjected to non-lethal heat shock injury by exposure to 42° C. for 23 min. Immediately thereafter some cultures received AMP peptide (8 μg/ml) (P on figure); control cultures (C) received vehicle. Whole cell protein was analyzed by immunoblotting. Increased expression of hsp25 and induced hsp72 is seen 12 hr after heat shock in control cultures, but constitutive expression of hsc73 is not altered. Expression of hsp25 and 72 was increased after treatment with AMP peptide compared to vehicle at 12 and 24 hr.
In an effort to identify molecules that could mediate the cytoprotective effect of AMP peptide, it was asked if exposing intestinal epithelial cells to the peptide could modify induction of heat shock proteins (hsps) (Musch et al., 1996). Diploid non-transformed rat intestinal epithelial IEC-18 cells were used to study induction of hsps in response to thermal injury rather than C2 cells—which constitutively express hsp27 and hsp72 at high levels, possibly because they are transformed. (Hsp27 is found in human C2 cells, and hsp25 in rat IEC-18 cells. Hsp72 is often referred to as hsp70). The results depicted in FIG. 42 indicate that, as expected, hsc73 and hsp25 are constitutively expressed (0 hr), but hsp72 is not. […]

In the case of “LDALVKEKKLQGKGPGGPPPK [97–117, peptide 77-97 of the mature protein, same as 97-117 of the human precursor]”, the “growth of Aspergillus niger” value [1] is reported as “did not alter the growth”, the “maturation of TER” value ([2]; by 24 hr and to a greater extent thereafter) is reported as “increases TER” and the “TER relative to control cultures” value ([2]; peptide 8 μg/ml, at 72 hr) is reported as “twice as high”. For the same sequence, the “growth of Klebsiella pneumoniae” value [3] was “did not alter the growth”, the “stimulation of [3H]thymidine incorporation into DNA” value ([4]; P<0.001) was 68% and the “[3H]thymidine incorporation into DNA” value ([4]; with peptide, without 16,668±616) was 28,036±882. The “expression of hsp25 and hsp72 compared to vehicle” value [5] was “greater; also recorded: increased”.
